Measured values: patent US8175815B2, “Method for assessing absorption properties of low solubility compounds” (F. Hoffmann-La Roche AG, priority 2006, dated 2012)
Values after ≈ are worked out from the molar mass of the structure shown. Values joined by “and” are separate entries in the source; they are usually repeats but may differ in a detail not shown here. Equal values may be shown once. Read-outs that look alike come from different tables or passages of the source. Blank lines part the entries; values can stand above or below the compound they belong to.

Legend:
[1] = PAMPA, 30 min, 50 μM
[2] = PAMPA
physchem [3] = experiment: physchem
[4] = Double-Sink PAMPA permeability with and without excipients
[5] = equilibrium solubility-pH, direct-UV microtitre plate (μSOL Evolution) with and without excipients; settings: for pKa at 18 h / solubility at 18 h: aqueous universal buffer (pION); for pKa at 18 h: saturated drug suspension, pKa^APP ± SD; for solubility at 18 h: 25 °C, kinetic from dmso stock
[6] = mice, oral, cited from earlier work
[7] = mice; +HP-β-CD / no excip.
[8] = flux function combining permeability and solubility measurement results; settings: for flux increase factor: 1% HP-β-CD vs excipient-free; for net flux effect due to 1% HP-β-CD: pH 5.0, 6.2, 7.4, FIG. 13
[9] = 18 h
physchem [10] = experiment: physchem; remark: listed apart in the source
[11] = dogs, gel caps, 200 mg/kg; cited from earlier work
[12] = cited from earlier work
[13] = apparent/true molecular weight, 40 μm ABL assumed, 0 mM NaTC (first value)
[14] = apparent ionization constant in saturated solution, excipient none
[15] = apparent ionization constant, excipient 3 mM NaTC
[16] = apparent ionization constant, excipient 15 mM NaTC
[17] = apparent ionization constant, excipient 0.1M KCl
[18] = apparent ionization constant, excipient 0.2M KCl
[19] = apparent ionization constant, excipient 1% HP-b-CD
[20] = apparent ionization constant, excipient 1% NMP
[21] = apparent ionization constant, excipient 1% PEG400
[22] = apparent ionization constant, excipient 1% PG
[23] = apparent ionization constant, excipient 5% PEG400
[24] = apparent ionization constant, excipient 5% PG
[25] = apparent ionization constant, excipient […] HP-b-CD
[26] = apparent ionization constant, excipient […] NMP
[27] = apparent ionization constant, excipient […] PEG400
[28] = apparent ionization constant, excipient […] PG
[29] = buffer + 1% w/v HP-b-CD, * = anticipated salt limit exceeded
[30] = buffer, * = anticipated salt limit exceeded

PABL 0 mM NaTC [1]: 782
PABL 3 mM NaTC [1]: 909
PABL 15 mM NaTC [1]: 795
refined ABL thickness [1]: exceeding 75 μm
pKa (physchem [3]): 4.39 ± 0.09
MW*/MW ([4]; 3 mM NaTC (second value)): 3
MW*/MW ([4]; 15 mM NaTC (third value)): 4
MW*/MW [4, 13]: 4
solubility at 18 h ([5]; aqueous buffer): 0.021 ± 0.005 µg/mL (≈ 0.087 µM)
solubility at 18 h ([5]; aqueous with cosolvent or surfactant or cyclodextrin): < 3 µg/mL
pKa at 18 h [5, 14]: 4.3 ± 0.3
pKa at 18 h [5, 15]: 5.8 ± 0.1
pKa at 18 h [5, 16]: 5.7 ± 0.1
pKa at 18 h [5, 17]: 4.4 ± 0.4
pKa at 18 h [5, 18]: 4.3
pKa at 18 h [5, 19]: 5.2 ± 0.1
pKa at 18 h [5, 20]: 4.4 ± 0.2
pKa at 18 h [5, 21]: 4.5
pKa at 18 h [5, 22]: 4 ± 0.3
pKa at 18 h [5, 23]: 4.5 ± 1.1
pKa at 18 h [5, 24]: 4
pKa at 18 h [5, 25]: 4.6 ± 0.1
pKa at 18 h [5, 26]: 4.1 ± 0.6
pKa at 18 h [5, 27]: 4.5 ± 0.2
pKa at 18 h [5, 28]: 4.1 ± 0.3
So ± SD ([5]; excipient 3 mM NaTC): 0.11 ± 0.03 µg/mL
So^APP ± SD ([5]; excipient 3 mM NaTC): 1.9 ± 0.4 µg/mL
So ± SD ([5]; excipient 15 mM NaTC): 0.10 ± 0.03 µg/mL
So^APP ± SD ([5]; excipient 15 mM NaTC): 1.4 ± 0.3 µg/mL
So^APP ± SD ([5]; excipient 0.1M KCl): 0.023 ± 0.005 µg/mL
So^APP ± SD ([5]; excipient 0.2M KCl): 0.021 µg/mL
So ± SD ([5]; excipient 1% HP-b-CD): 0.61 µg/mL
So^APP ± SD ([5]; excipient 1% HP-b-CD): 2.9 ± 0.5 µg/mL
So^APP ± SD ([5]; excipient 1% NMP): 0.062 ± 0.010 µg/mL
So^APP ± SD ([5]; excipient 1% PEG400): 0.021 µg/mL
So^APP ± SD ([5]; excipient 1% PG): 0.021 µg/mL
So^APP ± SD ([5]; excipient 5% PEG400): 0.028 µg/mL
So^APP ± SD ([5]; excipient 5% PG): 0.056 µg/mL
So ± SD ([5]; excipient […] HP-b-CD): 0.28 ± 0.02 µg/mL
So^APP ± SD ([5]; excipient […] HP-b-CD): 0.34 ± 0.02 µg/mL
So^APP ± SD ([5]; excipient […] NMP): 0.019 ± 0.009 µg/mL
So^APP ± SD ([5]; excipient […] PEG400): 0.004 ± 0.002 µg/mL
So^APP ± SD ([5]; excipient […] PG): 0.021 µg/mL
intrinsic solubility in excipient free buffer ([5]; excipient free): 0.021 µg/mL
So^APP ± SD ([5]; excipient none): 0.021 ± 0.005 µg/mL
salt limit (sdiff 3-4 approximation) ([5]; three orders of magnitude above excipient-free intrinsic solubility): 21 µg/mL
Compound: Cc1cccc(Nc2ccccc2C(=O)O)c1C [mefenamic acid]
net flux effect due to 1% HP-β-CD ([2]; pH 5): In acid solutions, flux is helped by 1% HP-β-CD, but in neutral solutions, there is a net loss

PABL 0 mM NaTC [1]: 1080
PABL 3 mM NaTC [1]: 561
PABL 15 mM NaTC [1]: 9
determined ABL thickness hABL [1]: < 50 μm
So ± SD [9]: 4.0 ± 2.9 µg/mL
pKa (physchem [3]): 5.99 ± 0.06
pKa at 18 h (physchem [10]; pKa^APP ± SD): 9.1 ± 0.5
MW*/MW ([4]; 3 mM NaTC (second value)): 5
MW*/MW ([4]; 15 mM NaTC (third value)): 56000
MW*/MW [4, 13]: ~1
Compound: COc1ccc(CCN2CCC(Nc3nc4ccccc4n3Cc3ccc(F)cc3)CC2)cc1 [astemizole]

PABL 0 mM NaTC [1]: 2400
PABL 3 mM NaTC [1]: 604
determined ABL thickness hABL [1]: < 50 μm
pKa (physchem [3]): 6.02 ± 0.05
pKa at 18 h (physchem [10]; pKa^APP ± SD): 7.4 ± 1.1
MW*/MW ([4]; 3 mM NaTC (second value)): 5
MW*/MW [4, 13]: < 1
Compound: Clc1ccccc1C(c1ccccc1)(c1ccccc1)n1ccnc1 [clotrimazole]

Second part, the compound before the results:

Compound: OCCN(CCO)c1nc(N2CCCCC2)c2nc(N(CCO)CCO)nc(N3CCCCC3)c2n1 [dipyridamole]
PABL 0 mM NaTC [1]: 941
PABL 3 mM NaTC [1]: 922
PABL 15 mM NaTC [1]: 47
net flux effect due to 1% HP-β-CD ([2]; pH 5): the flux remains unaffected by the excipient
pKa (physchem [3]): 6.22 ± 0.15
MW*/MW ([4]; 3 mM NaTC (second value)): 1
MW*/MW ([4]; 15 mM NaTC (third value)): 1100
MW*/MW [4, 13]: ~1
pKa at 18 h [5, 14]: 5.8 ± 0.1
pKa at 18 h [5, 15]: 5.6 ± 0.1
pKa at 18 h [5, 16]: 5.2 ± 0.1
pKa at 18 h [5, 17]: 6 ± 0.1
pKa at 18 h [5, 18]: 5.9 ± 0.1
pKa at 18 h [5, 19]: 5.6 ± 0.1
pKa at 18 h [5, 20]: 5.7 ± 0.1
pKa at 18 h [5, 21]: 5.9 ± 0.2
pKa at 18 h [5, 22]: 5.8 ± 0.1
pKa at 18 h [5, 23]: 6.2 ± 0.1
pKa at 18 h [5, 24]: 5.8 ± 0.1
pKa at 18 h [5, 25]: 5.8 ± 0.1
pKa at 18 h [5, 26]: 5.8 ± 0.1
pKa at 18 h [5, 27]: 6.8 ± 0.1
pKa at 18 h [5, 28]: 5.8 ± 0.1
So ± SD ([5]; excipient 3 mM NaTC): 5.3 ± 0.9 µg/mL
So^APP ± SD ([5]; excipient 3 mM NaTC): 24 ± 2 µg/mL
So ± SD ([5]; excipient 15 mM NaTC): 9.9 ± 1.7 µg/mL
So^APP ± SD ([5]; excipient 15 mM NaTC): 110 µg/mL and 110 ± 5 µg/mL
So ± SD ([5]; excipient 0.1M KCl): 3.3 ± 0.8 µg/mL
So^APP ± SD ([5]; excipient 0.1M KCl): 5.2 ± 0.8 µg/mL
So ± SD ([5]; excipient 0.2M KCl): 3.1 ± 0.7 µg/mL
So^APP ± SD ([5]; excipient 0.2M KCl): 5.8 ± 0.9 µg/mL
So ± SD ([5]; excipient 1% HP-b-CD): 3.2 ± 0.7 µg/mL
So^APP ± SD ([5]; excipient 1% HP-b-CD): 15 ± 1 µg/mL
So ± SD ([5]; excipient 1% NMP): 2.4 ± 0.7 µg/mL
So^APP ± SD ([5]; excipient 1% NMP): 8.1 ± 1.5 µg/mL
So ± SD ([5]; excipient 1% PEG400): 5.0 ± 1.9 µg/mL
So^APP ± SD ([5]; excipient 1% PEG400): 11 ± 3 µg/mL
So ± SD ([5]; excipient 1% PG): 2.7 ± 0.2 µg/mL
So^APP ± SD ([5]; excipient 1% PG): 6.5 ± 0.3 µg/mL
So ± SD ([5]; excipient 5% PEG400): 13.7 ± 2.4 µg/mL
So^APP ± SD ([5]; excipient 5% PEG400): 14 ± 1 µg/mL
So ± SD ([5]; excipient 5% PG): 3.9 ± 0.8 µg/mL
So^APP ± SD ([5]; excipient 5% PG): 9.8 ± 1.3 µg/mL
So ± SD ([5]; excipient […] HP-b-CD): 2.8 ± 0.7 µg/mL
So^APP ± SD ([5]; excipient […] HP-b-CD): 7.1 ± 0.8 µg/mL
So ± SD ([5]; excipient […] NMP): 2.2 ± 0.6 µg/mL
So^APP ± SD ([5]; excipient […] NMP): 5.9 ± 1.1 µg/mL
So^APP ± SD ([5]; excipient […] PEG400): 4.6 ± 1.2 µg/mL
So ± SD ([5]; excipient […] PG): 2.1 ± 0.3 µg/mL
So^APP ± SD ([5]; excipient […] PG): 5.8 ± 0.5 µg/mL
So ± SD ([5]; excipient none): 2.3 ± 0.7 µg/mL
So^APP ± SD ([5]; excipient none): 6.2 ± 1.1 µg/mL and 6.2 µg/mL

Compound: CCCSc1ccc2nc(NC(=O)OC)[nH]c2c1 [albendazole]
Cmax +HP-β-CD ([6]; HP-β-CD (20% w/v)): 0.39 µg/mL
Tmax +HP-β-CD ([6]; HP-β-CD (20% w/v)): 0.33 h
Cmax no excip. ([6]; suspension of excipient-free drug): 0.09 µg/mL
Tmax no excip. [6]: 0.75 h
Po ([4]; buffer): 4.28 ± 1.59 E−04 cm s^−1
Po ([4]; buffer + 1% w/v HP-b-CD): 3.12 ± 0.30 E−05 cm s^−1
AUC Ratio [7]: 1.4
Cmax Ratio [7]: 4.3
Tmax Ratio [7]: 0.4
flux increase factor ([8]; pH 5.0): 3.0
flux increase factor ([8]; pH 6.2): 3.1
flux increase factor ([8]; pH 7.4): 3.1
average flux gain factor ([8]; 1% HP-β-CD, average over pH 5.0, 6.2, 7.4): 3.1
net flux effect due to 1% HP-β-CD [8]: gains, uniformly at the three pH values of interest
So^APP ([5]; buffer): 0.88 ± 0.07 µg/mL
S(pH 7.4) ([5]; buffer + 1% w/v HP-b-CD): 34 μg mL^−1
So^APP ([5]; buffer + 1% w/v HP-b-CD): 34 ± 1 µg/mL
S(pH 5.0) [5, 29]: 34 μg mL^−1
S(pH 6.2) [5, 29]: 34 μg mL^−1
S(pH 5.0) [5, 30]: 1.0 μg mL^−1
S(pH 6.2) [5, 30]: 0.89 μg mL^−1
S(pH 7.4) [5, 30]: 0.88 μg mL^−1

Compound: CCCCc1oc2ccccc2c1C(=O)c1cc(I)c(OCCN(CC)CC)c(I)c1 [amiodarone]
net flux effect due to 1% HP-β-CD [8]: cross-over pattern as a function of pH

Compound: COc1ccc(Cl)cc1C(=O)NCCc1ccc(S(=O)(=O)NC(=O)NC2CCCCC2)cc1 [glybenclamide]
n ± SD [9]: 1.1 ± 0.1
average flux gain factor ([2]; pH 5): 3.1
flux increase factor ([2]; pH 5): 20.1
flux increase factor ([2]; pH 6.2): 4.3
flux decrease factor ([2]; pH 7.4): 3
Cmax +HP-β-CD [11]: 0.61 µg/mL
Cmax no excip. [11]: 0.0839 µg/mL
Tmax +HP-β-CD [11]: 2.5 h
Tmax no excip. [11]: 4.5 h
pKa (physchem [3]): 5.75 ± 0.15
pKa at 18 h (physchem [10]; negative shift in the apparent pKa): 1.6
pKa at 18 h (physchem [10]; pKa^APP ± SD): 4.6 ± 0.1

Compound: hydroxypropyl-β-cyclodextrin [HP-β-CD]
solubility [12]: 450000 µg/mL
